From patent US20260207563A1, “UREA COMPOUNDS AS ACTIVATORS OF POTASSIUM CHANNELS KV7.2/7.3 USEFUL IN THE TREATMENT OF CNS AND PNS DISORDERS” (ANGELINI PHARMA S.P.A., priority 2022, published 2026)

How the values were obtained:
Format in all cases: cell-based
[1] = target: T1, heteromeric KV7.3/KV7.5 channel (KCNQ3, KCNQ5) (Homo sapiens, UniProt O43525+Q9NR82); assay: Automated patch-clamp counter-screening against KV7.3/KV7.5 channel; conditions: HEK293 cells expressing Kv7.3/KV7.5; class by maximal shift in the Vhalf at 30 μM
T1 construct: host or cells: HEK293
How it was run: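 Potency came from a 4-parameter logistic fit of mean voltage-of-half-activation shifts, yielding EC50 and maximal shift; selectivity was judged on the shift at 30 μM. Compounds were applied at ten 3-fold dilutions from 30 μM in quadruplicate to HEK293 cells stably carrying Kv7.3 with tet-inducible Kv7.5.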

[2] = target: T2, homomeric KV7.4 channel (KCNQ4) (Homo sapiens, UniProt P56696); assay: Automated patch-clamp (Qube) counter-screening assay against KV7.4 channel; conditions: CHO-K1 cells expressing KV7.4; class by maximal shift in the Vhalf at 30 μM
T2 construct: host or cells: CHO-K1
How it was run: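 EC50 and maximal shift in half-activation voltage come from 4-parameter logistic fits of mean Vhalf shifts. The series had ten 1-in-3 concentrations, highest 30 μM, each tested in quadruplicate. Recordings used automated Qube patch clamp on a stable CHO-K1 line expressing KCNQ4, and selectivity was judged from the 30 μM Vhalf shift.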

[3] = target: T3, heteromeric KV7.2/KV7.3 channels (KCNQ2, KCNQ3) (Homo sapiens, UniProt O43525+O43526); assay: Automated patch-clamp (Sophion Qube 384) potency assay against KV7.2/KV7.3 channels; conditions: CHO-K1/Kv7.2/Kv7.3 cells; for EC50: EC50 from concentration-response of shift in Vhalf, 10 concentrations up to 30 μM, read-out: Kv7.2/7.3 EC50; for Kv7.2/7.3 ΔV1/2: maximal shift in the Vhalf from the top of the curve
T3 construct: expressed in transfected cells; host or cells: CHO-K1
How it was run: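 Activator potency: EC50 from 4-parameter logistic fit of mean Vhalf shift across ten 1-in-3 dilutions starting at 30 μM (n=4), with DMSO (typically 0.3%) control. Currents recorded by leak-subtracted whole-cell clamp of stable CHO-K1 KV7.2/KV7.3 cells, held at −80 mV, stepped −100 to +20 mV then 0 mV tails.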

SMILES	EC50 [3]	Kv7.2/7.3 ΔV1/2 [3]	Kv7.3/7.5 selectivity criteria [1]	Kv7.4 selectivity criteria [2]
CC(NC(=O)NCCC1(C(F)(F)F)CC1)c1ccnc(OCC(F)(F)F)n1 (stereo not shown) [Compound 104]	3090 nM	21.96 mV	A (Selective compounds showed Kv7.4 and/or Kv7.3/7.5 ΔV1/2 equal to or lower than 15 mV (letter A in table 3))	A (Selective compounds showed Kv7.4 and/or Kv7.3/7.5 ΔV1/2 equal to or lower than 15 mV (letter A in table 3))
C[C@H](NC(=O)NC[C@H](O)C(C)(C)C)c1ccnc(OCC(F)(F)C(F)(F)F)c1 [Compound 105]	1500 nM	35.29 mV	A (Selective compounds showed Kv7.4 and/or Kv7.3/7.5 ΔV1/2 equal to or lower than 15 mV (letter A in table 3))	B (Non-selective compounds showed Kv7.4 and/or Kv7.3/7.5 ΔV1/2 higher than 15 mV (letter B in table 3))
O=C(NCCC1(C(F)(F)F)CC1)N1CCC[C@H]1c1ccnc(OCC(F)(F)F)c1 [Compound 106]	2840 nM	28.47 mV	A (Selective compounds showed Kv7.4 and/or Kv7.3/7.5 ΔV1/2 equal to or lower than 15 mV (letter A in table 3))	A (Selective compounds showed Kv7.4 and/or Kv7.3/7.5 ΔV1/2 equal to or lower than 15 mV (letter A in table 3))
O=C(NCc1ccnc(OCC(F)(F)F)n1)NCC1CCCCC1 [Compound 107]	3060 nM	20.76 mV	A (Selective compounds showed Kv7.4 and/or Kv7.3/7.5 ΔV1/2 equal to or lower than 15 mV (letter A in table 3))	A (Selective compounds showed Kv7.4 and/or Kv7.3/7.5 ΔV1/2 equal to or lower than 15 mV (letter A in table 3))
O=C(NCC1CCC(F)(F)CC1)N[C@@H](CO)c1ccnc(OCC(F)(F)F)c1 [Compound 108]	3180 nM	26.46 mV	A (Selective compounds showed Kv7.4 and/or Kv7.3/7.5 ΔV1/2 equal to or lower than 15 mV (letter A in table 3))	A (Selective compounds showed Kv7.4 and/or Kv7.3/7.5 ΔV1/2 equal to or lower than 15 mV (letter A in table 3))
O=C(NCCC1(C(F)(F)F)CC1)NCc1ccnc(C(F)F)c1 [Compound 109]	4790 nM	16.81 mV	A (Selective compounds showed Kv7.4 and/or Kv7.3/7.5 ΔV1/2 equal to or lower than 15 mV (letter A in table 3))	A (Selective compounds showed Kv7.4 and/or Kv7.3/7.5 ΔV1/2 equal to or lower than 15 mV (letter A in table 3))
C[C@H](NC(=O)N[C@@H]1CCc2ccc(F)cc21)c1ccnc(OCC(F)(F)F)n1 [Compound 110]	1920 nM	28.73 mV	B (Non-selective compounds showed Kv7.4 and/or Kv7.3/7.5 ΔV1/2 higher than 15 mV (letter B in table 3))	A (Selective compounds showed Kv7.4 and/or Kv7.3/7.5 ΔV1/2 equal to or lower than 15 mV (letter A in table 3))
O=C(NCCC1(C(F)(F)F)CC1)N[C@@H](CO)c1ccnc(OCC(F)(F)F)c1 [Compound 112]	653 nM	26.53 mV	A (Selective compounds showed Kv7.4 and/or Kv7.3/7.5 ΔV1/2 equal to or lower than 15 mV (letter A in table 3))	A (Selective compounds showed Kv7.4 and/or Kv7.3/7.5 ΔV1/2 equal to or lower than 15 mV (letter A in table 3))
O=C(NCc1ccnc(C(O)C(F)(F)F)c1)N[C@@H]1CCc2ccc(F)cc21 (stereo partly shown) [Compound 113]	7640 nM	27.22 mV	B (Non-selective compounds showed Kv7.4 and/or Kv7.3/7.5 ΔV1/2 higher than 15 mV (letter B in table 3))	A (Selective compounds showed Kv7.4 and/or Kv7.3/7.5 ΔV1/2 equal to or lower than 15 mV (letter A in table 3))
CC1(NC(=O)NCc2ccnc(OCC(F)(F)F)c2)Cc2ccccc2C1 [Compound 114]	672 nM	32.56 mV	B (Non-selective compounds showed Kv7.4 and/or Kv7.3/7.5 ΔV1/2 higher than 15 mV (letter B in table 3))	A (Selective compounds showed Kv7.4 and/or Kv7.3/7.5 ΔV1/2 equal to or lower than 15 mV (letter A in table 3))
O=C(NCc1ccnc(OCC(F)(F)F)c1)N[C@H]1c2ccccc2C[C@@H]1O [Compound 123]	6670 nM	25.23 mV	A (Selective compounds showed Kv7.4 and/or Kv7.3/7.5 ΔV1/2 equal to or lower than 15 mV (letter A in table 3))	A (Selective compounds showed Kv7.4 and/or Kv7.3/7.5 ΔV1/2 equal to or lower than 15 mV (letter A in table 3))
CC(F)(F)c1cc(CNC(=O)N[C@@H]2CCc3ccc(F)cc32)ccn1 [Compound 124]	11700 nM	18.78 mV	A (Selective compounds showed Kv7.4 and/or Kv7.3/7.5 ΔV1/2 equal to or lower than 15 mV (letter A in table 3))	A (Selective compounds showed Kv7.4 and/or Kv7.3/7.5 ΔV1/2 equal to or lower than 15 mV (letter A in table 3))

More lines, main results first:

EC50 [3]	Kv7.2/7.3 ΔV1/2 [3]	SMILES	Kv7.3/7.5 selectivity criteria [1]	Kv7.4 selectivity criteria [2]
2440 nM	35.96 mV	O=C(NCc1ccnc(OCC(F)F)c1)N[C@@H]1CCc2ccc(F)cc21 [Compound 111]	B (Non-selective compounds showed Kv7.4 and/or Kv7.3/7.5 ΔV1/2 higher than 15 mV (letter B in table 3))	A (Selective compounds showed Kv7.4 and/or Kv7.3/7.5 ΔV1/2 equal to or lower than 15 mV (letter A in table 3))
479 nM	21.89 mV	O=C(NCc1ccnc(OCC(F)(F)F)c1)N[C@@H]1CCc2ccccc2C1 [Compound 115]	A (Selective compounds showed Kv7.4 and/or Kv7.3/7.5 ΔV1/2 equal to or lower than 15 mV (letter A in table 3))	A (Selective compounds showed Kv7.4 and/or Kv7.3/7.5 ΔV1/2 equal to or lower than 15 mV (letter A in table 3))
1590 nM	31.15 mV	Cc1cccc2c1C(NC(=O)NCc1ccnc(OCC(F)(F)F)c1)CC2 (stereo not shown) [Compound 116]	B (Non-selective compounds showed Kv7.4 and/or Kv7.3/7.5 ΔV1/2 higher than 15 mV (letter B in table 3))	A (Selective compounds showed Kv7.4 and/or Kv7.3/7.5 ΔV1/2 equal to or lower than 15 mV (letter A in table 3))
1900 nM	20.5 mV	O=C(NCc1ccnc(OCC(F)(F)F)c1)NC1CCc2ccc(C(F)(F)F)cc21 (stereo not shown) [Compound 117]	A (Selective compounds showed Kv7.4 and/or Kv7.3/7.5 ΔV1/2 equal to or lower than 15 mV (letter A in table 3))	A (Selective compounds showed Kv7.4 and/or Kv7.3/7.5 ΔV1/2 equal to or lower than 15 mV (letter A in table 3))
1550 nM	41.97 mV	O=C(NCc1ccnc(OCC(F)(F)F)c1)N[C@@H]1CCc2c(Cl)cccc21 [Compound 118]	B (Non-selective compounds showed Kv7.4 and/or Kv7.3/7.5 ΔV1/2 higher than 15 mV (letter B in table 3))	B (Non-selective compounds showed Kv7.4 and/or Kv7.3/7.5 ΔV1/2 higher than 15 mV (letter B in table 3))
1080 nM	36.41 mV	O=C(NCc1ccnc(OCC(F)(F)F)c1)N[C@@H]1CCc2cc(F)c(F)cc21 [Compound 119]	B (Non-selective compounds showed Kv7.4 and/or Kv7.3/7.5 ΔV1/2 higher than 15 mV (letter B in table 3))	A (Selective compounds showed Kv7.4 and/or Kv7.3/7.5 ΔV1/2 equal to or lower than 15 mV (letter A in table 3))
276 nM	16.57 mV	O=C(NCc1ccnc(OCC(F)(F)F)c1)N[C@H]1CCc2cc(F)c(F)cc21 [Compound 120]	A (Selective compounds showed Kv7.4 and/or Kv7.3/7.5 ΔV1/2 equal to or lower than 15 mV (letter A in table 3))	B (Non-selective compounds showed Kv7.4 and/or Kv7.3/7.5 ΔV1/2 higher than 15 mV (letter B in table 3))
1560 nM	38.54 mV	O=C(NCc1ccnc(OCC(F)(F)F)c1)N[C@@H]1CCc2c(Cl)cccc21 [Compound 121]	B (Non-selective compounds showed Kv7.4 and/or Kv7.3/7.5 ΔV1/2 higher than 15 mV (letter B in table 3))	B (Non-selective compounds showed Kv7.4 and/or Kv7.3/7.5 ΔV1/2 higher than 15 mV (letter B in table 3))
2710 nM	26.22 mV	COc1ccc2c(c1)CCC2NC(=O)NCc1ccnc(OCC(F)(F)F)c1 (stereo not shown) [Compound 122]	A (Selective compounds showed Kv7.4 and/or Kv7.3/7.5 ΔV1/2 equal to or lower than 15 mV (letter A in table 3))	A (Selective compounds showed Kv7.4 and/or Kv7.3/7.5 ΔV1/2 equal to or lower than 15 mV (letter A in table 3))
683 nM	18.25 mV	COc1cc2c(cc1F)CCC2NC(=O)NCc1ccnc(OCC(F)(F)F)c1 (stereo not shown) [Compound 125]	A (Selective compounds showed Kv7.4 and/or Kv7.3/7.5 ΔV1/2 equal to or lower than 15 mV (letter A in table 3))	A (Selective compounds showed Kv7.4 and/or Kv7.3/7.5 ΔV1/2 equal to or lower than 15 mV (letter A in table 3))
